The structures appear in SMILES notation.

For experiment [1], the target named is Serine/threonine-protein kinase LATS1 (Homo sapiens, UniProt O95835). The experiment in a line: LATS1(LAT1LGRJ) Takeda global kinase panel.
Experiment [2] deals with Serine/threonine-protein kinase N2 (Homo sapiens, UniProt Q16513). The experiment in a line: PKN2 [PRK2(PKN2LGG5)] Takeda global kinase panel.
The target in experiment [3] is 5-hydroxytryptamine receptor 1B (Homo sapiens) (UniProt P28222). The conditions noted are these: Compound concentration 10.0 uM.
Chain of 5-hydroxytryptamine receptor 1B (Homo sapiens) (P28222 whole entry): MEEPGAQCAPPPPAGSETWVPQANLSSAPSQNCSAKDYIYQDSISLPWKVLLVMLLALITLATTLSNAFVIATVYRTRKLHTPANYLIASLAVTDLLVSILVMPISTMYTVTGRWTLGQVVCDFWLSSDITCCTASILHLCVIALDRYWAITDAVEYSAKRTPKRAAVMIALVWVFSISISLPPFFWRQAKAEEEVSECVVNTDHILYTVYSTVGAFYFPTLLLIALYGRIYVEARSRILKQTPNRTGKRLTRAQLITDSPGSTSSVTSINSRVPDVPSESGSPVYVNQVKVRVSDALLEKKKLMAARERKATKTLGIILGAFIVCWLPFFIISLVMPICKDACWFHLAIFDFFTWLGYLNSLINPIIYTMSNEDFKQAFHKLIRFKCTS
The target of experiment [4] is 5-hydroxytryptamine receptor 2C (Homo sapiens) (UniProt P28335). The conditions noted are these: Compound concentration 10.0 uM.
For experiment [5], the target named is 5-hydroxytryptamine receptor 7 (Homo sapiens) (UniProt P34969). Particulars: Compound concentration 10.0 uM.
The target of experiment [6] is Mu-type opioid receptor (Homo sapiens) (UniProt P35372). Particulars: Compound concentration 10.0 uM.
Chain of Mu-type opioid receptor (Homo sapiens) (P35372 whole entry): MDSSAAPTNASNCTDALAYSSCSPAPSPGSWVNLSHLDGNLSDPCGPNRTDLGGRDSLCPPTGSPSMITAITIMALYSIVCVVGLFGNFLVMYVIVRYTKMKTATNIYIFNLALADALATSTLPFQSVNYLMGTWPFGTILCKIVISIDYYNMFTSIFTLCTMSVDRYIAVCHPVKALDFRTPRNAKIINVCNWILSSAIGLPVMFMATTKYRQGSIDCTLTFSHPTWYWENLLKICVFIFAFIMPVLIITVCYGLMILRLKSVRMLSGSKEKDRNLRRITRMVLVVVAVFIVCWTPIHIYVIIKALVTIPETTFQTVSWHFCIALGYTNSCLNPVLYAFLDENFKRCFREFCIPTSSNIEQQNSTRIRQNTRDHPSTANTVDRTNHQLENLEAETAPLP
The target of experiment [7] is Histamine H1 receptor (Homo sapiens) (UniProt P35367). The conditions noted are these: Compound concentration 10.0 uM.
Chain of Histamine H1 receptor (Homo sapiens) (P35367 whole entry): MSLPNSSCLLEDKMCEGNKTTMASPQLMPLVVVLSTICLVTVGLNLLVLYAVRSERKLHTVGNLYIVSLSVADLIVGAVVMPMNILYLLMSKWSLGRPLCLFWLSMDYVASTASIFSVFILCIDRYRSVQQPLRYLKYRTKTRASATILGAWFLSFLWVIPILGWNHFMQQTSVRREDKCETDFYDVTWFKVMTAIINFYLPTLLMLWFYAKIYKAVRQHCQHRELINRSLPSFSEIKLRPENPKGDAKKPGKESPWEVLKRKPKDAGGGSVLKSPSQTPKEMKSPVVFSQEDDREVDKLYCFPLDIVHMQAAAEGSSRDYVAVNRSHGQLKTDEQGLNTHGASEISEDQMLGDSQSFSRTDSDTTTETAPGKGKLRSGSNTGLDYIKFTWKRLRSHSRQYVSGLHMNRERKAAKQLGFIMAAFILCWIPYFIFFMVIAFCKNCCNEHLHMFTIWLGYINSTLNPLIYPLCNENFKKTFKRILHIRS
The target in experiment [8] is T1, Alpha-1A adrenergic receptor (Homo sapiens) (UniProt P35348).
T1 sequence (whole entry): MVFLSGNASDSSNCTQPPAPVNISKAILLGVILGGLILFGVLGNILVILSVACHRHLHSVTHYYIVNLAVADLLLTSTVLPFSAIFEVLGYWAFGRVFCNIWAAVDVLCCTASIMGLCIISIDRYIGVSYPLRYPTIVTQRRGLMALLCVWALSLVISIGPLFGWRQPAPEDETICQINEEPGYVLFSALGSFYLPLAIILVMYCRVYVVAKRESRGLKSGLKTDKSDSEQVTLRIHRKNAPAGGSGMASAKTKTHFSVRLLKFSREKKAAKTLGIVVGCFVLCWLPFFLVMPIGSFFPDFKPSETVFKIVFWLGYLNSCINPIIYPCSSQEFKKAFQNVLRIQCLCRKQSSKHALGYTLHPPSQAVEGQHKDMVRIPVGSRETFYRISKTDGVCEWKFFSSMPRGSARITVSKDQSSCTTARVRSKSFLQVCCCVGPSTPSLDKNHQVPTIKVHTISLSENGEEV
The conditions noted are these: Compound concentration 10.0 uM.

Experiment [9] addresses T2, Muscarinic acetylcholine receptor M1 (Homo sapiens) (UniProt P11229).
T2 sequence (whole entry): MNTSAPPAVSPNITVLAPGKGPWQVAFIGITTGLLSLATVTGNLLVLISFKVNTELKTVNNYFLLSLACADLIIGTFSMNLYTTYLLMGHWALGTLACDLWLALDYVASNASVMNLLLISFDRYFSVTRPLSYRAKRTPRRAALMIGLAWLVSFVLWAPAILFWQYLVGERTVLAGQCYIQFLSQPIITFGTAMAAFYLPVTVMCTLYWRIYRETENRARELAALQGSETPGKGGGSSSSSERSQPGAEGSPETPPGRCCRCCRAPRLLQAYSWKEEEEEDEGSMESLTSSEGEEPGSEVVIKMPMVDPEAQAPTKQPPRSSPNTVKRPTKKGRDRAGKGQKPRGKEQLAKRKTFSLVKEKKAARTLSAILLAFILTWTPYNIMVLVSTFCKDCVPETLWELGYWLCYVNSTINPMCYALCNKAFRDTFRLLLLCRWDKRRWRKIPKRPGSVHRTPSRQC
Particulars: Compound concentration 10.0 uM.

The target of experiment [10] is AP2-associated protein kinase 1 (Homo sapiens, UniProt Q2M2I8). The experiment in a line: AAK1(AAK1LGF1) Takeda global kinase panel.
Experiment [11] addresses Calcium/calmodulin-dependent protein kinase type II subunit alpha (Homo sapiens, UniProt Q9UQM7). The experiment in a line: CaMK2alpha(CA2ACGT1) Takeda global kinase panel.
The target in experiment [12] is Calcium/calmodulin-dependent protein kinase kinase 2 (Homo sapiens, UniProt Q96RR4). The experiment in a line: CAMKK2(CAK2LGT5) Takeda global kinase panel.
Experiment [13] has as its target Tyrosine-protein kinase JAK2 (Homo sapiens, UniProt O60674). The experiment is described as follows: JAK2(JAK2LGF1) Takeda global kinase panel.
Experiment [14] has as its target Mitogen-activated protein kinase 7 (Homo sapiens, UniProt Q13164). The experiment is described as follows: ERK5(MAP7LGF1) Takeda global kinase panel.
The target of experiment [15] is Hepatocyte growth factor receptor (Homo sapiens, UniProt P08581). The experiment is described as follows: Met([…]) Takeda global kinase panel.
For experiment [16], the target named is Serine/threonine-protein kinase TAO1 (Homo sapiens, UniProt Q7L7X3). The experiment in a line: TAO1(TAO1LGF1) Takeda global kinase panel.
Experiment [17] deals with Tyrosine-protein kinase Yes (Homo sapiens, UniProt P07947). The experiment in a line: Yes(YES1LGF1) Takeda global kinase panel.

Chain of Serine/threonine-protein kinase N2 (Q16513 whole entry): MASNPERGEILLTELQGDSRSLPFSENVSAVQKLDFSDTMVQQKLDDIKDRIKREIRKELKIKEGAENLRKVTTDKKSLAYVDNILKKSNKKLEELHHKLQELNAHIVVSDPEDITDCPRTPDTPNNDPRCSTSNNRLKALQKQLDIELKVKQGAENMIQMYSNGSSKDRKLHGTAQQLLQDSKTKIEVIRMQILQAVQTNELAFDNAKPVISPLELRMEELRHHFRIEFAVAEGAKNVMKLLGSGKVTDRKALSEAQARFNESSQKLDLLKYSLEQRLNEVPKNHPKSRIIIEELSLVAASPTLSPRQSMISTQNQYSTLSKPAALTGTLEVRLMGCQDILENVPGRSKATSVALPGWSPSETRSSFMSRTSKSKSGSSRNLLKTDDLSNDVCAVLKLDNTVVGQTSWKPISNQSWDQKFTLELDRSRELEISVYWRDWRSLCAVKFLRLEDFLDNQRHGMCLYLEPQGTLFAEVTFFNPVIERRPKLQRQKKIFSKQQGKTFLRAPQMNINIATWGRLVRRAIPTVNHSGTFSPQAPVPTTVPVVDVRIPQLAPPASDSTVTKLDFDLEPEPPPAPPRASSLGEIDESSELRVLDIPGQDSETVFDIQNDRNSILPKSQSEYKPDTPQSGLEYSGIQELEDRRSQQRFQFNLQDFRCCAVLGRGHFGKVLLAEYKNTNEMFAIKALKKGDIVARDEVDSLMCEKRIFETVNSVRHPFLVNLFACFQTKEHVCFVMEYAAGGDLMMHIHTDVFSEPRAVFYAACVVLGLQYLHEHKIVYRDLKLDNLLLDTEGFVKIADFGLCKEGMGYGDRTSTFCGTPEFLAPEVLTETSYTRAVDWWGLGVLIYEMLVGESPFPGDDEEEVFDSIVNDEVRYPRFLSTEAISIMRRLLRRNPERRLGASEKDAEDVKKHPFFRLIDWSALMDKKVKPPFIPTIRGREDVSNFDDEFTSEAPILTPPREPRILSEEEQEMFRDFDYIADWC
Chain of Tyrosine-protein kinase JAK2 (O60674 whole entry): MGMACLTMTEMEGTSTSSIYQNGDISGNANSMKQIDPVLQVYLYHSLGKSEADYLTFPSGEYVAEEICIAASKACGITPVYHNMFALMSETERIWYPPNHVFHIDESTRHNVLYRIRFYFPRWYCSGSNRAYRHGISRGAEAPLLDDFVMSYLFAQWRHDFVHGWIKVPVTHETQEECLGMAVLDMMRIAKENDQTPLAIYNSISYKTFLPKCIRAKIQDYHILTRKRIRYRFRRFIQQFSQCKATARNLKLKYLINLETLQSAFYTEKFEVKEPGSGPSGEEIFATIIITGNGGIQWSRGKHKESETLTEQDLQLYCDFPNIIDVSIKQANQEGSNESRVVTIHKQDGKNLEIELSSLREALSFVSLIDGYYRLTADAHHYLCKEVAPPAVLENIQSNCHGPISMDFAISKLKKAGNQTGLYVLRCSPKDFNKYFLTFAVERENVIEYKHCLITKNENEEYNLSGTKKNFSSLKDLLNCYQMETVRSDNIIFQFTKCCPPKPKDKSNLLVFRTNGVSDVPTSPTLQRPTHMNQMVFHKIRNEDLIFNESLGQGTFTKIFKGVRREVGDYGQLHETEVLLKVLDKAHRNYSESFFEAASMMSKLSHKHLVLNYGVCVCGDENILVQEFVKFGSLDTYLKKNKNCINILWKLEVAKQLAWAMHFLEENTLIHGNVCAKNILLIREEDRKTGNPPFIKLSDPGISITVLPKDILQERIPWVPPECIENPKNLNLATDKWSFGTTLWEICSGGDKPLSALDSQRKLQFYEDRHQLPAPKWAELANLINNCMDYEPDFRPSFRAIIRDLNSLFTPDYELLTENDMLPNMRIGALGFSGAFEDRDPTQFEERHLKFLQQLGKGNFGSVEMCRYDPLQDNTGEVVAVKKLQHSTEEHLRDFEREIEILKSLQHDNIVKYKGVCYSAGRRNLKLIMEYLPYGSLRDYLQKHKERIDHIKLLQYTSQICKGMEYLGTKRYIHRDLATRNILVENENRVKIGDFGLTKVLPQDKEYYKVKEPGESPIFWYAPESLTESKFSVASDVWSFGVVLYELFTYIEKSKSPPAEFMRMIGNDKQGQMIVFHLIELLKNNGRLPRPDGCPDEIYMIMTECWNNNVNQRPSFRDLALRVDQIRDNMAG
Chain of Calcium/calmodulin-dependent protein kinase type II subunit alpha (Q9UQM7 whole entry): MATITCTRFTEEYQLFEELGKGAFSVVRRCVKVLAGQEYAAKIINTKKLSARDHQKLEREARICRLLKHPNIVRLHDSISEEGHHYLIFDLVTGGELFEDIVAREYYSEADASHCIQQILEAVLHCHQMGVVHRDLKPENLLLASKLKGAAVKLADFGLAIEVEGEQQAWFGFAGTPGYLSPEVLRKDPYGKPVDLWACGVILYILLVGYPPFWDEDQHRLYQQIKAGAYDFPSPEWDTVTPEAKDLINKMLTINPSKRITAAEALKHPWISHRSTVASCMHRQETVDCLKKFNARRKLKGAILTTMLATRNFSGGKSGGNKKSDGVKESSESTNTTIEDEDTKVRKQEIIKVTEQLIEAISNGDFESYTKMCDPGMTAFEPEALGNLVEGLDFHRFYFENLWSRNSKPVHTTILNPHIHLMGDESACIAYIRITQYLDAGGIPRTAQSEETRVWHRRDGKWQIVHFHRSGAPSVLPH
Chain of Serine/threonine-protein kinase LATS1 (O95835 whole entry): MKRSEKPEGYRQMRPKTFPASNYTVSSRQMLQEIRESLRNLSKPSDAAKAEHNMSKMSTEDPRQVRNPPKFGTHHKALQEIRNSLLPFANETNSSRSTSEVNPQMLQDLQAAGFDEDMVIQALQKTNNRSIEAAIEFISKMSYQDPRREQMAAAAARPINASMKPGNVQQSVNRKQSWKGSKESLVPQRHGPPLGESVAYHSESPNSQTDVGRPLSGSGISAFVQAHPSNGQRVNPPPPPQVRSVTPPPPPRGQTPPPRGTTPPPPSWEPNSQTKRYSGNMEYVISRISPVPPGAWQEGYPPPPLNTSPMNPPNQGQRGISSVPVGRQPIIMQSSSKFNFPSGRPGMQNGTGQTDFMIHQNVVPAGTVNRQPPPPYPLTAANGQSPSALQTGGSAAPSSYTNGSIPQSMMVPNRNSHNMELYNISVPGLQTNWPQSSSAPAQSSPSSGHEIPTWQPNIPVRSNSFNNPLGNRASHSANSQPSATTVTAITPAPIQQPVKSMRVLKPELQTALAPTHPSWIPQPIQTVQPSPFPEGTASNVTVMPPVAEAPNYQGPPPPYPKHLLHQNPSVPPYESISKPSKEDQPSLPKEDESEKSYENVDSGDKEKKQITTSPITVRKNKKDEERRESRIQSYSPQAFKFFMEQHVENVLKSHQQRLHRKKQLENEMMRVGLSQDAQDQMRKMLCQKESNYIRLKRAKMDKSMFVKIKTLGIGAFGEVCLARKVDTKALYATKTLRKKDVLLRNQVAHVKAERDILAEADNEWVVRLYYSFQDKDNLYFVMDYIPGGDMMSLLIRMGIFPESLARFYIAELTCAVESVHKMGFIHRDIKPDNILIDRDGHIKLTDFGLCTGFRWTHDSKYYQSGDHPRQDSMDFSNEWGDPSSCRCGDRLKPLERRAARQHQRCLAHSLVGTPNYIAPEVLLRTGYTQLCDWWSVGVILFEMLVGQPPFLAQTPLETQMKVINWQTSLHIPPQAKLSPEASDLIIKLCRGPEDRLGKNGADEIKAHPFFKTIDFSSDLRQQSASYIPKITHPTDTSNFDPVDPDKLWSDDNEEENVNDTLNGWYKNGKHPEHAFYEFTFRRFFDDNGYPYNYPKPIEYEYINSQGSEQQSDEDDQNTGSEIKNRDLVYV

Usually IC50 stands for the concentration that inhibits the measured activity by half. Broadly, the inhibition is the relative decrease from the control value, in per cent. For `CN1C(=O)[C@@H](N2CCc3cn(Cc4ccccc4)nc3C2=O)COc2ccccc21` [TP-030-1], the IC50 in experiment [1] and in experiment [2] was 1000 nM throughout. Moreover, the inhibition was 0.99% in [3]; -2.89% in experiment [4]; -1.17% in [5]; 10.6% in experiment [6]; 20.5% in experiment [7]; -0.5% in [8]. The inhibition in experiment [9] is 0.6%.

As for `CN1C(=O)[C@@H](N2CCc3cn(CC4CCS(=O)(=O)CC4)nc3C2=O)COc2ccccc21` [TP-030n], the IC50 in [10], in experiment [11], in experiment [12], in experiment [13], in experiment [14] and in experiment [15] was 1000 nM throughout. The IC50 in experiment [16] and in [17] was 1000 nM in each case.

The values are drawn from ChEMBL document CHEMBL4507327 (2021).
